Patent US20230065740A1, “CYCLIN-DEPENDENT KINASE INHIBITORS” (SPV THERAPEUTICS INC., priority 2018, published 2023)

Assays:
CDK6-CYCLIND3 = molecular target: T1, CDK6-CYCLIND3 (Homo sapiens, UniProt Q00534); assay: Microfluidic LabChip kinase inhibition assay, CDK6-CyclinD3; type: biochemical; conditions: Table 2; 300 μM ATP, 2 nM enzyme; read-out: CDK6 IC50
T1 construct: purchased Carna

CDK4-CYCLIND1 = CDK4-CYCLIND1 (Homo sapiens, UniProt P11802); assay: Microfluidic LabChip kinase inhibition assay, CDK4-CyclinD1; conditions: CDK4 IC50 (μM), Table 2; 200 μM ATP, 1 nM enzyme
Sequence of CDK4-CYCLIND1 (P11802 whole entry): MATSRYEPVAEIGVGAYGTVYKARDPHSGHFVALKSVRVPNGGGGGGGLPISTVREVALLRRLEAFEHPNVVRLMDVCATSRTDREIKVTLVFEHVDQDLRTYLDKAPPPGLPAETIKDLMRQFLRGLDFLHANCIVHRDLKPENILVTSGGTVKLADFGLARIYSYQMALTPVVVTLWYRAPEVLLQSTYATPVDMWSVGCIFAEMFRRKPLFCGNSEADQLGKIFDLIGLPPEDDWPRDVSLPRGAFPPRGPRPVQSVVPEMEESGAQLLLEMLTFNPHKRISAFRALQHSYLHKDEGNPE
Sequence of CDK4-CYCLIND1 (P24385 whole entry partner): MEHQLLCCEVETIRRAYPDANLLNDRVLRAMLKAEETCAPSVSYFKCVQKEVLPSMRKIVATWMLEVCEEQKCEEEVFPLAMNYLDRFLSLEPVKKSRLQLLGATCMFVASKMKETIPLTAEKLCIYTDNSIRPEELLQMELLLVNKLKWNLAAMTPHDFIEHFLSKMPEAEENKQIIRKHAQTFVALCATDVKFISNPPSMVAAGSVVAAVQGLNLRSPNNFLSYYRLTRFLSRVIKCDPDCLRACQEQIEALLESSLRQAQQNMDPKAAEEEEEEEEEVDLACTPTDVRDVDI

T1 sequence (Q00534 whole entry): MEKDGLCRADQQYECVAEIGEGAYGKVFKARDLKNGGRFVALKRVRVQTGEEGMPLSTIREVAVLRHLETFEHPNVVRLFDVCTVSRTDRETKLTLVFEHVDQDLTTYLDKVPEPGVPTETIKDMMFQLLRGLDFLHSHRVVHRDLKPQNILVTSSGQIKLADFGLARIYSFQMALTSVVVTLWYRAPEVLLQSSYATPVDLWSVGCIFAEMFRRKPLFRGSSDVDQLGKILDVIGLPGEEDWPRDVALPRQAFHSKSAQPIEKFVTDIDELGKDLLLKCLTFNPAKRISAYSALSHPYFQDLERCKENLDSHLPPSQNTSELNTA
T1 sequence (P30281 whole entry partner): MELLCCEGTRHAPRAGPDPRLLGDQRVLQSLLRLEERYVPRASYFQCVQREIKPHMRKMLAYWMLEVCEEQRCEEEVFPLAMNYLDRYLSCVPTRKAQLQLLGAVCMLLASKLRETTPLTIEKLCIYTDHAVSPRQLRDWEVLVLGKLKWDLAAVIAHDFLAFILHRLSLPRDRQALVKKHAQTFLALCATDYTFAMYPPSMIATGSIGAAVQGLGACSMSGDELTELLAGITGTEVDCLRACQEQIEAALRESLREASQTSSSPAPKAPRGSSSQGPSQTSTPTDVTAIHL

SMILES	IC50 (CDK6-CYCLIND3) [µM]	IC50 (CDK4-CYCLIND1) [µM]
CN(C)CCOc1ccc(Nc2ncc3c(n2)N(C2CCCC2)C2(CCN(C)C2=O)C3)nc1 (stereo not shown) [Compound C4, 7′-cyclopentyl-2′-((5-(2-(dimethylamino)ethoxy)pyridin-2-yl)amino)-1-methyl-5′,7′-dihydrospiro[pyrrolidine-3,6′-pyrrolo[2,3-d]pyrimidin]-2-one]	> 30	> 30
CN1CCC2(Cc3cnc(Nc4ccc(OCCN5CCCC5)cn4)nc3N2C2CCCC2)C1=O (stereo not shown) [Compound C5, 7′-cyclopentyl-1-methyl-2′-((5-(2-(pyrrolidin-1-yl)ethoxy)pyridin-2-yl)amino)-5′,7′-dihydrospiro[pyrrolidine-3,6′-pyrrolo[2,3-d]pyrimidin]-2-one]	> 30	> 30
CN1CCC2(Cc3cnc(Nc4ccc(OCCN5CCCCC5)cn4)nc3N2C2CCCC2)C1=O (stereo not shown) [Compound C6, 7′-cyclopentyl 1-methyl-2′-((5-(2-(piperidin-1-yl)ethoxy)pyridin-2-yl)amino)-5′,7′-dihydrospiro[pyrrolidine-3,6′-pyrrolo[2,3-d]pyrimidin]-2-one]	> 30	> 30
CN1CCN(c2ccc(Nc3ncc4c(n3)N(C3CCCC3)C3(CCCN(C)C3=O)C4)cc2)CC1 (stereo not shown) [Compound C7, 7′-cyclopentyl-1-methyl-2′-((4-(4-methylpiperazin-1-yl)phenyl)amino)-5′,7′-dihydrospiro[piperidine-3,6′-pyrrolo[2,3-d]pyrimidin]-2-one]	> 30	> 30
CN1CCCC2(Cc3cnc(Nc4ccc(N5CCNCC5)cc4)nc3N2C2CCCC2)C1=O (stereo not shown) [Compound C8, 7′-cyclopentyl-1-methyl-2′-((4-(piperazin-1-yl)phenyl)amino)-5′,7′-dihydrospiro[piperidine-3,6′-pyrrolo[2,3-d]pyrimidin]-2-one]	> 30	> 30
CC(C)N1CCN(c2ccc(Nc3ncc4c(n3)N(C3CCCC3)C3(CCCN(C)C3=O)C4)nc2)CC1 (stereo not shown) [Compound C9, 7′-cyclopentyl-2′-((5-(4-isopropylpiperazin-1-yl)pyridin-2-yl)amino)-1-methyl-5′,7′-dihydrospiro[piperidine-3,6′-pyrrolo[2,3-d]pyrimidin]-2-one]	> 30	> 30
CN1CCCC2(Cc3cnc(Nc4ccc(OCCN5CCCC5)cn4)nc3N2C2CCCC2)C1=O (stereo not shown) [Compound C10, 7′-cyclopentyl-1-methyl-2′-((5-(2-(pyrrolidin-1-yl)ethoxy)pyridin-2-yl)amino)-5′,7′-dihydrospiro[piperidine-3,6′-pyrrolo[2,3-d]pyrimidin]-2-one]	> 30	> 30
CN1CCCC2(Cc3cnc(Nc4ccc(OCCN5CCCCC5)cn4)nc3N2C2CCCC2)C1=O (stereo not shown) [Compound C11, 7′-cyclopentyl-1-methyl-2′-((5-(2-(piperidin-1-yl)ethoxy)pyridin-2-yl)amino)-5′,7′-dihydrospiro[piperidine-3,6′-pyrrolo[2,3-d]pyrimidin]-2-one]	> 30	> 30
COc1ccc(CN2CCC3(Cc4cnc(Nc5ccc(N6CCN(C)CC6)cc5)nc4N3C3CCCC3)C2=O)cc1 (stereo not shown) [Compound C12, 7′-cyclopentyl-1-(4-methoxybenzyl)-2′-((4-(4-methylpiperazin-1-yl)phenyl)amino)-5′,7′-dihydrospiro[pyrrolidine-3,6′-pyrrolo[2,3-d]pyrimidin]-2-one]	> 30	1.96
CN1CCN(c2cnc(Nc3ncc4c(n3)N(C3CCCC3)C3(CCN(C)C3=O)C4)cc2C(F)(F)F)CC1 (stereo not shown) [Compound C13, 7′-cyclopentyl-1-methyl-2′-((5-(4-methylpiperazin-1-yl)-4-(trifluoromethyl)pyridin-2-yl)amino)-5′,7′-dihydrospiro[pyrrolidine-3,6′-pyrrolo[2,3-d]pyrimidin]-2-one]	> 30	> 30
CN1CCCC2(Cc3cnc(Nc4cc(C(F)(F)F)c(N5CCNCC5)cn4)nc3N2C2CCCC2)C1=O (stereo not shown) [Compound C14, 7′-cyclopentyl-1-methyl-2′-((5-(piperazin-1-yl)-4-(trifluoromethyl)pyridin-2-yl)amino)-5′,7′-dihydrospiro[piperidine-3,6′-pyrrolo[2,3-d]pyrimidin]-2-one]	> 30	> 30
CN1CCC2(Cc3cnc(Nc4cc(C(F)(F)F)c(N5CCNCC5)cn4)nc3N2C2CCCC2)C1=O (stereo not shown) [Compound C15, 7′-cyclopentyl-1-methyl-2′-((5-(piperazin-1-yl)-4-(trifluoromethyl)pyridin-2-yl)amino)-5′,7′-dihydrospiro[pyrrolidine-3,6′-pyrrolo[2,3-d]pyrimidin]-2-one]	> 30	> 30
COc1ccc(CN2CCC3(Cc4cnc(Nc5cc(C(F)(F)F)c(N6CCNCC6)cn5)nc4N3C3CCCC3)C2=O)cc1 (stereo not shown) [Compound C16, 7′-cyclopentyl-1-(4-methoxybenzyl)-2′-((5-(piperazin-1-yl)-4-(trifluoromethyl)pyridin-2-yl)amino)-5′,7′-dihydrospiro[pyrrolidine-3,6′-pyrrolo[2,3-d]pyrimidin]-2-one]	> 30	13.1
O=C1NCCC12Cc1cnc(Nc3cc(C(F)(F)F)c(N4CCNCC4)cn3)nc1N2C1CCCC1 (stereo not shown) [Compound C17, 7′-cyclopentyl-2′-((5-(piperazin-1-yl)-4-(trifluoromethyl)pyridin-2-yl)amino)-5′,7′-dihydrospiro[pyrrolidine-3,6′-pyrrolo[2,3-d]pyrimidin]-2-one]	> 30	18.8
CN1CCN(c2cnc(Nc3ncc4c(n3)N(C3CCCC3)C3(CCNC3=O)C4)cc2C(F)(F)F)CC1 (stereo not shown) [Compound C18, 7′-cyclopentyl-2′-((5-(4-methylpiperazin-1-yl)-4-(trifluoromethyl)pyridin-2-yl)amino)-5′,7′-dihydrospiro[pyrrolidine-3,6′-pyrrolo[2,3-d]pyrimidin]-2-one]	> 30	> 30
CN1CCC2(Cc3cnc(Nc4ccc(N5CCNCC5)cn4)nc3N2C2CCCC2)C1=O (stereo not shown) [Compound C19, 7′-cyclopentyl-1-methyl-2′-((5-(piperazin-1-yl)pyridin-2-yl)amino)-5′,7′-dihydrospiro[pyrrolidine-3,6′-pyrrolo[2,3-d]pyrimidin]-2-one]	> 30	> 30
CN1CCN(c2ccc(Nc3ncc4c(n3)N(C3CCCC3)C3(CCN(C)C3=O)C4)nc2)CC1 (stereo not shown) [Compound C20, 7′-cyclopentyl-1-methyl-2′-((5-(4-methylpiperazin-1-yl)pyridin-2-yl)amino)-5′,7′-dihydrospiro[pyrrolidine-3,6′-pyrrolo[2,3-d]pyrimidin]-2-one]	> 30	> 30
O=C1N(Cc2ccccc2)CCC12Cc1cnc(Nc3ccc(N4CCNCC4)cn3)nc1N2C1CCCC1 (stereo not shown) [Compound C21]	> 30	> 30
CN1CCN(c2ccc(Nc3ncc4c(n3)N(C3CCCC3)C3(CCN(Cc5ccccc5)C3=O)C4)nc2)CC1 (stereo not shown) [Compound C22, 1-benzyl-7′-cyclopentyl-2′-((5-(4-methylpiperazin-1-yl)pyridin-2-yl)amino)-5′,7′-dihydrospiro[pyrrolidine-3,6′-pyrrolo[2,3-d]pyrimidin]-2-one]	> 30	16.5
CC(C)N1CCN(c2ccc(Nc3ncc4c(n3)N(C3CCCC3)C3(CCN(Cc5ccccc5)C3=O)C4)nc2)CC1 (stereo not shown) [Compound C23, 1-benzyl-7′-cyclopentyl-2′-((5-(4-isopropylpiperazin-1-yl)pyridin-2-yl)amino)-5′,7′-dihydrospiro[pyrrolidine-3,6′-pyrrolo[2,3-d]pyrimidin]-2-one]	> 30	17.7
CN1CCN(c2ccc(Nc3ncc4c(n3)N(C3CCCC3)C3(CCN(Cc5ccccc5)C3=O)C4)cc2)CC1 (stereo not shown) [Compound C24, 1-benzyl-7′-cyclopentyl-2′-((4-(4-methylpiperazin-1-yl)phenyl)amino)-5′,7′-dihydrospiro[pyrrolidine-3,6′-pyrrolo[2,3-d]pyrimidin]-2-one]	> 30	12.3
CN1CCCC2(Cc3cnc(Nc4ccc(N5CCNCC5)cn4)nc3N2C2CCCC2)C1=O (stereo not shown) [Compound C25, 7′-cyclopentyl-1-methyl-2′-((5-(piperazin-1-yl)pyridin-2-yl)amino)-5′,7′-dihydrospiro[piperidine-3,6′-pyrrolo[2,3-d]pyrimidin]-2-one]	> 30	> 30
CN1CCN(c2ccc(Nc3ncc4c(n3)N(C3CCCC3)C3(CCCN(C)C3=O)C4)nc2)CC1 (stereo not shown) [Compound C26, 7′-cyclopentyl-1-methyl-2′-((5-(4-methylpiperazin-1-yl)pyridin-2-yl)amino)-5′,7′-dihydrospiro[piperidine-3,6′-pyrrolo[2,3-d]pyrimidin]-2-one]	> 30	> 30
O=C1N(Cc2ccccc2)CCCC12Cc1cnc(Nc3ccc(N4CCNCC4)cn3)nc1N2C1CCCC1 (stereo not shown) [Compound C27, 1-benzyl-7′-cyclopentyl-2′-((5-(piperazin-1-yl)pyridin-2-yl)amino)-5′,7′-dihydrospiro[piperidine-3,6′-pyrrolo[2,3-d]pyrimidin]-2-one]	> 30	> 30
CN1CCN(c2ccc(Nc3ncc4c(n3)N(C3CCCC3)C3(CCCN(Cc5ccccc5)C3=O)C4)nc2)CC1 (stereo not shown) [Compound C28, 1-benzyl-7′-cyclopentyl-2′-((5-(4-methylpiperazin-1-yl)pyridin-2-yl)amino)-5′,7′-dihydrospiro[piperidine-3,6′-pyrrolo[2,3-d]pyrimidin]-2-one]	> 30	> 30
COc1ccc(CN2CCC3(Cc4cnc(Nc5ccc(N6CCNCC6)cn5)nc4N3C3CCCC3)C2=O)cc1 (stereo not shown) [Compound C29, 7′-cyclopentyl-1-(4-methoxybenzyl)-2′-((5-(piperazin-1-yl)pyridin-2-yl)amino)-5′,7′-dihydrospiro[pyrrolidine-3,6′-pyrrolo[2,3-d]pyrimidin]-2-one]	> 30	7.78
